Data taken from US10500207B2, “Compounds for the treatment of diseases associated with amyloid or amyloid-like proteins” (AC Immune SA, priority 2010, dated 2019).

The molecules below were run against Aβ1-42 peptide (Homo sapiens, UniProt P05067) (assay: Thioflavin T spectrofluorescence assay (ThT-assay): inhibition of Aβ1-42 aggregation (% inhibition at 330 μM; IC50 from dilution series)). Settings: 24 h, read-out: Inhibition at 330 μM [%], ThT assay; 330 μM small molecule, 33 μM Aβ1-42 (10:1), 24 hrs at 37° C.; mean ± standard deviation of two independent experiments.
Chain of Aβ1-42 peptide (P05067 672-713 limits assumed): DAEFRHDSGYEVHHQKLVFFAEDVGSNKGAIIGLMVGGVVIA
Experimental: Aβ1-42 lyophilized powder (Bachem) was reconstituted in hexafluoroisopropanol (HFIP) to 1 mM. The peptide solution was sonicated for 15 min at room temperature, agitated overnight, and aliquots were made into non-siliconized microcentrifuge tubes. The HFIP was then evaporated under a stream of argon. The resulting peptide film was dried under vacuum for 10 min, tightly sealed and stored at −80° C. until used.
A positive control without a small molecule was prepared to measure maximum RFU. A negative control without Aβ1-42 was prepared for each small molecule. […] The solutions were then incubated for 24 hrs at 37° C., and the spectrofluorescence (relative fluorescence units; RFU) were read in six replicates in black 384-well assay plates (Perkin-Elmer) on a Perkin-Elmer FluoroCount spectrofluorometer. The inhibition of aggregation is expressed as mean % inhibition±1 standard deviation (SD) according to the following equation:
Racemic compounds and their enantiomers were tested for their ability to inhibit amyloid peptide aggregation using the ThT assay. To determine the IC50, the following dilutions of the compounds were used in the ThT assay described above:

SMILES | inhibition at 330 µM
COc1ccc(Nc2ccc3c4c(n(C)c3c2)CCC(OC)C4)cc1OC (stereo not shown) [Example 123] | 93 ± 2.2%
COc1ccc(Nc2ccc3c(C4CCN(C)CC4)c[nH]c3c2)cc1F [Example 99] | 94.4 ± 0.1%
Cn1cc(C2CCNCC2)c2cc(Nc3ccc4c(C5CCNCC5)cn(C)c4c3)ccc21 [Example 53] | 96 ± 2.1%
c1ccc2c(c1)CCC2Nc1ccc2c(C3CCNCC3)c[nH]c2c1 (stereo not shown) [Example 94] | 94.4 ± 3.6%
COc1cc(Nc2ccc3c(C4CCN(C)CC4)c[nH]c3c2)ccc1F [Example 114] | 82.2 ± 1.6%
CNC1CCc2[nH]c3ccc(NC4CCN(C)CC4)cc3c2C1 (stereo not shown) [Example 109] | 63.6 ± 2%
FC(F)(F)c1ccc(Nc2ccc3cc[nH]c3n2)cn1 [Example 4] | 53.5 ± 0.4%
COc1ccc(Nc2ccc3c(c2)c2c(n3C)CCC(OC)C2)cc1OC (stereo not shown) [Example 121] | 91 ± 2.5%
CN1CCC(c2c[nH]c3ccc(Nc4ccc5c(C6CCNCC6)c[nH]c5c4)cc23)CC1 [Example 64] | 95.4 ± 0.3%
c1cc2c(C3CCNCC3)c[nH]c2cc1Nc1ccc2c(C3CCNCC3)c[nH]c2n1 [Example 48] | 92 ± 0.8%
Cn1c2c(c3cc(Nc4ccc(F)c(F)c4)ccc31)CS(=O)(=O)CC2 [Example 176] | 41.5 ± 3.6%
CNC1CCc2c(c3ccc(Nc4ccc5c(c4)OCC(=O)N5)nc3n2C)C1 (stereo not shown) [Example 85] | 95.1 ± 0.9%
CN1CCc2ccc(Nc3ccc4c5c(n(C)c4n3)CCC5)cc2C1 [Example 174] | 87.2 ± 1.3%
c1cc2[nH]cc(C3CCNCC3)c2cc1Nc1ccc2c3c([nH]c2n1)CCC3 [Example 47] | 99.1 ± 0.5%
c1cc2c(C3CCNCC3)c[nH]c2nc1Nc1ccc2c3c([nH]c2n1)CCCC3 [Example 44] | 98.1 ± 0.3%
c1nc2[nH]cc(C3CCNCC3)c2cc1Nc1ccc2c3c([nH]c2n1)CCCC3 [Example 45] | 96.5 ± 3.7%
COc1ccc(Nc2ccc3[nH]cc(C4CCN(C)CC4)c3c2)cc1OC [Example 100] | 66.6 ± 1.3%
COc1ccc(Nc2ccc3c4c(n(C)c3n2)CCCC4)cc1OC [Example 81] | 90.5 ± 0.5%
Cn1c2c(c3cc(Nc4ccc(F)c(F)c4)ccc31)CN(CCCCS(C)(=O)=O)CC2 [Example 208] | 85 ± 3.3%
CNC1CCc2c(c3cc(Nc4ccc(F)c(OC)c4)cnc3n2C)C1 (stereo not shown) [Example 138] | 69.3 ± 0.7%
CNC1CCc2[nH]c3ccc(Nc4ccc(F)c(OC)c4)cc3c2C1 (stereo not shown) [Example 116] | 89 ± 3.6%
c1cc2cc(Nc3ccc4cc[nH]c4n3)ccc2[nH]1 [Example 18] | 97 ± 1.2%
CNC1CCc2c(c3ccc(Nc4ccc(F)c(F)c4)cc3n2C)C1 (stereo not shown) [Example 140] | 93.8 ± 0.6%
c1cc2c(cc1Nc1ccc3c(C4CCNCC4)c[nH]c3n1)CCC2 [Example 40] | 94.8 ± 1%
CN1CCC(c2c[nH]c3cc(Nc4ccc(F)cc4)ccc23)CC1 [Example 195] | 89.7 ± 2.4%
CNC1CCc2c(c3ccc(Nc4ccc(OC)c(OC)c4)cc3n2C)C1 (stereo not shown) [Example 133] | 99.2 ± 0.3%
c1ccc(CCNc2ccc3cc[nH]c3n2)nc1 [Example 1] | 69.5 ± 4.5%

SMILES | inhibition at 330 µM
CC(=O)N(C)C1CCc2c(c3ccc(Nc4ccc(N5CCOCC5)cc4)nc3n2C)C1 (stereo not shown) [Example 164] | 69.4 ± 2.7%
c1cc2c(C3CCNCC3)c[nH]c2cc1Nc1ccc2[nH]cc(C3CCNCC3)c2c1 [Example 36] | 98.2 ± 0.3%
Cn1cc(C2CCNCC2)c2ccc(Nc3ccc(N4CCOCC4)cc3)nc21 [Example 71] | 90.7 ± 3%
Fc1ccc(Nc2ccc3c(c2)OCO3)cc1F [Example 186] | 66.5 ± 2.4%
Cn1cc(C2CCNCC2)c2ccc(Nc3ccc(F)c(F)c3)cc21 [Example 38] | 90.9 ± 2.7%
c1nc2c(C3CCNCC3)c[nH]c2cc1Nc1ccc2c3c([nH]c2n1)CCCC3 [Example 35] | 97.7 ± 0.3%
CNC1CCc2c(c3ccc(Nc4ccc(N5CCN(C)CC5)cc4)nc3n2C)C1 (stereo not shown) [Example 83] | 82.7 ± 0.7%
COC1CCc2c(c3cc(Nc4ccc5c(c4)OCO5)ccc3n2C)C1 (stereo not shown) [Example 125] | 84.2 ± 5.8%
COC1CCc2c(c3ccc(Nc4ccc(N5CCOCC5)cc4)nc3n2C)C1 (stereo not shown) [Example 193] | 54.3 ± 3.4%
Fc1ccc(Nc2ccc3cc[nH]c3n2)cc1F [Example 3] | 56.6 ± 23%
CNC1CCc2c(c3ccc(Nc4ccc(N5CCOCC5)cc4)nc3n2C)C1 (racemic) [Example 42] | 96.2 ± 2.8%
CN1CCC(c2c[nH]c3cc(Nc4cc(F)c(F)cc4F)ccc23)CC1 [Example 79] | 91 ± 4.2%
CN1CCC(c2cn(C)c3nc(Nc4ccc5c(c4)OCCO5)ccc23)CC1 [Example 150] | 83.9 ± 1.5%
COc1ccc(Nc2ccc3c(C4CCNCC4)cn(C)c3c2)cc1OC [Example 97] | 83.8 ± 3.7%
CNC1(C)CCc2c(c3ccc(Nc4ccc(F)c(F)c4)nc3n2C)C1 (stereo not shown) [Example 89] | 89.6 ± 5%
CNC1CCc2c(c3ccc(Nc4ccc5c(c4)NC(=O)CO5)nc3n2C)C1 (stereo not shown) [Example 86] | 96.6 ± 0.7%
Cn1c2c(c3cc(Nc4ccc(F)nc4)ccc31)CS(=O)(=O)CC2 [Example 183] | 42.3 ± 3.1%
COC1CCc2c(c3ccc(Nc4ccc(F)cc4)cc3n2C)C1 (stereo not shown) [Example 191] | 89.7 ± 1.4%
COc1ccc(Nc2ccc3c(C4CCN(C)CC4)c[nH]c3c2)cc1OC [Example 91] | 92.5 ± 1.3%
CNC1CCc2c(c3ccc(Nc4ccc(OC)c(OC)c4)nc3n2C)C1 (stereo not shown) [Example 95] | 89.9 ± 6.1%
COC(=O)c1c[nH]c2nc(Nc3ccc4c(C5CCNCC5)c[nH]c4c3)ccc12 [Example 32] | 94.7 ± 1%
Cn1c2c(c3ccc(Nc4ccc(F)c(F)c4)cc31)CN(CCCCS(C)(=O)=O)CC2 [Example 210] | 43.2 ± 12.9%
Cn1c2c(c3ccc(Nc4ccc(N5CCOCC5)cc4)nc31)CCCC2 [Example 165] | 78.1 ± 0.2%
c1cc(N2CCOCC2)ccc1Nc1ccc2c(C3CCNCC3)c[nH]c2n1 [Example 69] | 86.5 ± 7.2%
CNC1CCc2c(c3ccc(Nc4cc(F)c(F)c(F)c4)nc3n2C)C1 (stereo not shown) [Example 30] | 84.3 ± 3.1%
COc1cc(Nc2ccc3c(c2)c2c(n3C)CCC(OC)C2)ccc1F (stereo not shown) [Example 122] | 80.8 ± 2.9%
Cn1cc(C2CCNCC2)c2ccc(Nc3ccc(F)c(F)c3)nc21 [Example 67] | 87.8 ± 4.2%

SMILES | inhibition at 330 µM
CN1CCC(c2c[nH]c3cc(Nc4cccc(N5CCOCC5)c4)ccc23)CC1 [Example 20] | 92.8 ± 0.1%
c1nc2[nH]cc(C3CCNCC3)c2cc1Nc1ccc2c3c([nH]c2n1)CCC3 [Example 51] | 95.5 ± 1%
CNC1CCc2[nH]c3nc(Nc4ccc5c(C6CCNCC6)c[nH]c5c4)ccc3c2C1 (stereo not shown) [Example 31] | 96.5 ± 0.6%
CNC1CCc2c(c3cc(Nc4ccc(OC)c(OC)c4)cnc3n2C)C1 (stereo not shown) [Example 135] | 51.9 ± 5.5%
COC1CCc2c(c3ccc(Nc4ccc5c(c4)OCO5)nc3n2C)C1 (stereo not shown) [Example 205] | 91.7 ± 0.1%
c1cc2c(cc1Nc1ccc3c(C4CCNCC4)c[nH]c3c1)OCO2 [Example 41] | 98 ± 0.5%
CCOC(=O)N1CCc2c(c3cc(Nc4ccc(F)c(F)c4)ccc3n2C)C1 [Example 199] | 68.6 ± 0.5%
Cn1cc(C2CCNCC2)c2ccc(Nc3ccc4ocnc4c3)cc21 [Example 111] | 99.5 ± 0.1%
CN1CCC(c2c[nH]c3cc(Nc4ccc5c(c4)CNCC5)ccc23)CC1 [Example 154] | 86.3 ± 2.6%
CN1CCN(C(=O)c2ccc(Nc3ccc(F)cc3)cc2)CC1 [Example 189] | 12.6 ± 5.5%
Fc1ccc(Nc2ccc3c(C4CCNCC4)c[nH]c3c2)cc1F [Example 52] | 83.6 ± 2.8%
CN1CCN(C(=O)c2ccc(Nc3ccc4c(c3)OCO4)cc2)CC1 [Example 190] | 20.1 ± 4.6%
Cn1c2c(c3cc(Nc4ccc(C(F)(F)F)nc4)ccc31)CS(=O)(=O)CC2 [Example 179] | 30.2 ± 0.9%
CNC1CCc2[nH]c3ccc(Nc4ccc(OC)c(OC)c4)cc3c2C1 (stereo not shown) [Example 106] | 86.4 ± 3.8%
CC(C)OC1CCc2c(c3ccc(Nc4ccc5c(c4)OCCO5)nc3n2C)C1 (stereo not shown) [Example 203] | 93.4 ± 3.5%
CN(C)C1CCc2[nH]c3ccc(Nc4ccc(N5CCOCC5)cc4)cc3c2C1 (stereo not shown) [Example 76] | 96.9 ± 2.3%
Cn1c2c(c3ccc(Nc4ccc(F)c(F)c4)nc31)CC(OCCF)CC2 (stereo not shown) [Example 128] | 88.6 ± 1.2%
CN1CCC(c2cn(C)c3cc(Nc4cccc(N5CCOCC5)c4)ccc23)CC1 [Example 75] | 97.1 ± 2%
CN1CCc2ccc(Nc3ccc4c(c3)c3c(n4C)CCS(=O)(=O)C3)cc2C1 [Example 180] | 50.2 ± 0.9%
Fc1cc(F)cc(Nc2ccc3cc[nH]c3n2)c1 [Example 6] | 60.1 ± 3.5%
Cn1cc(C2CCNCC2)c2ccc(Nc3ccc4c(c3)OCO4)cc21 [Example 145] | 88.3 ± 4.9%
CNC1CCc2c(c3ccc(Nc4ccc5c(c4)OCCO5)nc3n2C)C1 (racemic) [Example 156] | 85.1 ± 0.8%
c1cc2ccc(NC3CCNCC3)nc2[nH]1 [Example 43] | 48.4 ± 20.3%
Cn1c2c(c3ccc(Nc4ccc5c(c4)OCCO5)cc31)CNCC2 [Example 202] | 86.1 ± 1.6%
CNC1CCc2[nH]c3cc(Nc4ccc(OC)c(OC)c4)ccc3c2C1 (stereo not shown) [Example 120] | 100%
CN1CCC(c2c[nH]c3cc(Nc4ccc5c(c4)OCC(=O)N5)ccc23)CC1 [Example 87] | 80.8 ± 0.5%

Same assay, conditions: IC50 μM 1st assay, ThT assay, dilution series 330 μM to 0.08 μM; 1st assay

SMILES | IC50
CNC1CCc2c(c3ccc(Nc4ccc(F)c(F)c4)nc3n2C)C1 (single isomer, unassigned) [Example 214b] | 13.4 µM
CNC1CCc2c(c3ccc(Nc4ccc(N5CCOCC5)cc4)nc3n2C)C1 (single isomer, unassigned) [Example 216b] | 45 µM
CNC1CCc2c(c3ccc(Nc4ccc(N5CCOCC5)cc4)nc3n2C)C1 (racemic) [Example 42] | 63 µM
CNC1CCc2c(c3ccc(Nc4ccc5c(c4)OCCO5)nc3n2C)C1 (racemic) [Example 156] | 39.7 µM

Same assay, conditions: IC50 μM 2nd assay, ThT assay, dilution series 330 μM to 0.08 μM; 2nd assay

SMILES | IC50
CNC1CCc2c(c3ccc(Nc4ccc(F)c(F)c4)nc3n2C)C1 (single isomer, unassigned) [Example 214b] | 7.7 µM
CNC1CCc2c(c3ccc(Nc4ccc(N5CCOCC5)cc4)nc3n2C)C1 (single isomer, unassigned) [Example 216b] | 34.5 µM
CNC1CCc2c(c3ccc(Nc4ccc(N5CCOCC5)cc4)nc3n2C)C1 (racemic) [Example 42] | 112 µM
CNC1CCc2c(c3ccc(Nc4ccc5c(c4)OCCO5)nc3n2C)C1 (racemic) [Example 156] | 26.7 µM
